Measurements: patent US6087119A, “Method for determining the catalytic activity of factor IXa” (Roche Diagnostics GmbH, priority 1996, dated 2000)
Values joined by “and” are separate entries in the source; they are usually repeats but may differ in a detail not shown here. Identical values can stand only once. Like-named read-outs stand apart in the source and are kept apart here.

Columns and labels:
[1] = molecular target: FXIIa (human) (Homo sapiens, UniProt P00748); conditions: FXIIa 0.0045 U/ml, MeSO2-D-HHT-Gly-Arg-pNA 1.02 mmol/l, pH 7.4
Chain of FXIIa (human) (P00748 373-615 limits assumed, other chains not shown): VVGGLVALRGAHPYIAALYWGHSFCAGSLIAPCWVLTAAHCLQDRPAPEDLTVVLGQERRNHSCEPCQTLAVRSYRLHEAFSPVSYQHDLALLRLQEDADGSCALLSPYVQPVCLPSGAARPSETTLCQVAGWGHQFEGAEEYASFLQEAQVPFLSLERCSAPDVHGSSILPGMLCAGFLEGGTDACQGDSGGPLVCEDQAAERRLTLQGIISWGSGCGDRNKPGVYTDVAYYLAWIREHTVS
Source text: FXIIa Test Mixture (Concentration in the Test)
(§1) 42 mmol/l Tris-HCl, pH 7.4
(§2) 1.02 mmol/l MeSO2 -D-HHT-Gly-Arg-pNA
0.0045 U/ml FXIIa (human)
(§3) 0-50% ethanol or ethylene glycol

[2] = molecular target: T1, rFIXa (human) (Homo sapiens, UniProt P00740); conditions: fluorogenic MeSO2-D-CHA-Gly-Arg-AMC 0.51 mmol/l, 0.08 μmol/l rFIXa, pH 7.4
Source text: The stimulation of human rFIXa by ethanol and ethylene glycol was examined using the peptide substrates MeSO2 -D-HHT-Gly-Arg-pNA (Pefachrom tPA, Pentapharm Ltd., Basel, Switzerland), MOC-D-Nle-Gly-Arg-pNA (Chromozym X, Boehringer Mannheim GmbH, Mannheim, Germany, Cat.No. 789763), MeSO2 -D-CHG-Gly-Arg-pNA (Pentapharm Ltd., Basel, Switzerland), MeSO2 -D-CHA-Gly-Arg-pNA (Pentapharm Ltd., Basel, Switzerland) and MeSO2 -D-CHA-Gly-Arg-AMC (Pentapharm Ltd., Basel, Switzerland).
Test Mixture Fluorogenic (Concentration in the Test)
0.51 mmol/l MeSO2 -D-CHA-Gly-Arg-AMC
0.08 μmol/l rFIXa (human)
Target sequence in this assay (P00740 227-461): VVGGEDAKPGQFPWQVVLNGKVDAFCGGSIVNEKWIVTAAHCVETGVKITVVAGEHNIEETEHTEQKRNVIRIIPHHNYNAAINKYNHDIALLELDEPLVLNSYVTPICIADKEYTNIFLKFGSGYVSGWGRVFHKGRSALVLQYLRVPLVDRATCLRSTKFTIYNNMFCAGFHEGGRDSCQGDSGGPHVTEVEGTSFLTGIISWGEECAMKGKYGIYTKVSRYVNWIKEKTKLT
Target sequence in this assay (P00740 131-226): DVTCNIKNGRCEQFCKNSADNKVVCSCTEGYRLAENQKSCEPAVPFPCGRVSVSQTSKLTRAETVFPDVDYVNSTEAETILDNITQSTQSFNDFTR

[3] = molecular target: thrombin (bovine) (Bos taurus, UniProt P00735); conditions: thrombin 0.045 μmol/l, MeSO2-D-HHT-Gly-Arg-pNA 1.02 mmol/l, pH 7.4
Source text: Thrombin Test Mixture (Concentration in the Test)
as §1, §2
0.045 μmol/l thrombin (bovine)
as §3

[4] = molecular target: T1, rFIXa (human); test: Influence of alcohols and organic solvents on the activity of rFIXa, chromogenic peptide substrates; assay type: biochemical; parameters: coding for the FIX protease domain from amino acid position 181 to 415; Met (ATG start codon) (N); made in house; conditions: for V/V0: pH 7.4
Method: The reaction was started by adding FIXa.
MeSO2 -D-HHT-Gly-Arg-pNA→MeSO2 -D-HHT-Gly-Arg+pNA measurement signal: pNA
0.48 μmol/l rFIXa (human)
0-50% (alcohol or organic solvent)
The ratio V/V0 was calculated to illustrate the stimulation of the catalytic activity of rFIXa.
V0, reaction rate without additives
V, reaction rate in the presence of additives
Test Mixture Chromogenic (Concentration in the Test)
Target sequence in this assay (P00740 227-461 limits assumed): as the sequence (P00740 227-461) above
Target sequence in this assay (P00740 131-226 partner limits assumed): as the sequence (P00740 131-226) above

[5] = molecular target: FXIa (human) (Homo sapiens, UniProt P03951); conditions: FXIa 0.0012 μmol/l, MeSO2-D-HHT-Gly-Arg-pNA 1.02 mmol/l, pH 7.4
Chain of FXIa (human) (P03951 388-625 limits assumed): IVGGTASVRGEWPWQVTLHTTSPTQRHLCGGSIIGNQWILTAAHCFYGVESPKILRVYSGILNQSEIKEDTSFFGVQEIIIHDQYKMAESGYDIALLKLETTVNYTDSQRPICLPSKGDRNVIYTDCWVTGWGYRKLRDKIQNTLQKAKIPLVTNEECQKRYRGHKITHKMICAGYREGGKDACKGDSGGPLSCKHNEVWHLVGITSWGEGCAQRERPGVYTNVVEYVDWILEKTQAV
Chain of FXIa (human) (P03951 19-387 partner limits assumed): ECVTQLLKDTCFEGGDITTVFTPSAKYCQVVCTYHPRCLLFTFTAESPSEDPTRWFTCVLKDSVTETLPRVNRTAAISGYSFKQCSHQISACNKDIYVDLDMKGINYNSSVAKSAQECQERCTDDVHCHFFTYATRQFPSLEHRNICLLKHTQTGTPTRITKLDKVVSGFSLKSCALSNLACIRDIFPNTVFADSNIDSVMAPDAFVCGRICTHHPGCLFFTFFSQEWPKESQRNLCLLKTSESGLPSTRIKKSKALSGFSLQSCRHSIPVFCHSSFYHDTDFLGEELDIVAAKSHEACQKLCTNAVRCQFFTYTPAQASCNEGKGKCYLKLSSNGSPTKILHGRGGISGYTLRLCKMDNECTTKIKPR
Source text: FXIa Test Mixture (Concentration in the Test)
as §1, §2
0.0012 μmol/l FXIa (human)
as §3

[6] = molecular target: FXa (bovine) (Bos taurus, UniProt P00743); conditions: FXa 0.088 μmol/l, MeSO2-D-HHT-Gly-Arg-pNA 1.02 mmol/l, pH 7.4
Chain of FXa (bovine) (P00743 234-492 limits assumed): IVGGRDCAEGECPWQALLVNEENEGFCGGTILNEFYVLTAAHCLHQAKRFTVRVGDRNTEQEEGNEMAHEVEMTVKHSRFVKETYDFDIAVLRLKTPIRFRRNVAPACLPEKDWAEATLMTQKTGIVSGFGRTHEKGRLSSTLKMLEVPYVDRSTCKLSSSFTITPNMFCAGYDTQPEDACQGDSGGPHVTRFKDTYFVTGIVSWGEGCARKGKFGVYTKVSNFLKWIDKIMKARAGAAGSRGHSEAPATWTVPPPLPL
Chain of FXa (bovine) (P00743 41-180 partner limits assumed): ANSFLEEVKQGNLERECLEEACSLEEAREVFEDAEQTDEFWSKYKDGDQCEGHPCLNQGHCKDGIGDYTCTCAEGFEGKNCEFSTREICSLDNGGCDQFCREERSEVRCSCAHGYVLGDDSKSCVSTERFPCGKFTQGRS
Source text: FXa Test Mixture (concentration in the Test)
as §1, §2
0.088 μmol/l FXa (bovine)
as §3

[7] = molecular target: plasma kallikrein (human) (Homo sapiens, UniProt P03952); conditions: PKallikrein 0.0176 U/ml, MeSO2-D-HHT-Gly-Arg-pNA 1.02 mmol/l, pH 7.4
Chain of plasma kallikrein (human) (P03952 391-638 limits assumed): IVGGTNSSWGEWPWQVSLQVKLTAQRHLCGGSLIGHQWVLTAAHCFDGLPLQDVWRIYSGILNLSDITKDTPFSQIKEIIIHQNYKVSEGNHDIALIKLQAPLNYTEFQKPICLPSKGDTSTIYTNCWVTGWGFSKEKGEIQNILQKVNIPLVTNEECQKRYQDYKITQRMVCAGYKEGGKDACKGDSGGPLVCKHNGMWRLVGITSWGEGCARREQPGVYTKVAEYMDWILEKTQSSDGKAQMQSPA
Chain of plasma kallikrein (human) (P03952 20-390 partner limits assumed): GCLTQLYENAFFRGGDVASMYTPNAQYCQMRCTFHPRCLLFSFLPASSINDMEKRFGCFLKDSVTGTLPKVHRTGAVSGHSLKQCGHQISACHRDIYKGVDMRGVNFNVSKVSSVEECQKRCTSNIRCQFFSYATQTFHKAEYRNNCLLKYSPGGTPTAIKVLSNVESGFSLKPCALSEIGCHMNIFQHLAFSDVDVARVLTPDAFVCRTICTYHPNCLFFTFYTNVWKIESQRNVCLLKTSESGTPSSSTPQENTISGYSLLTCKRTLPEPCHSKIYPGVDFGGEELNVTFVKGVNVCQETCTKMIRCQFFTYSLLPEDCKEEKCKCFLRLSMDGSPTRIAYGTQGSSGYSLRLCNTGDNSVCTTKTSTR
Source text: Plasma Kallikrein Test Mixture (Concentration in the Test)
as §1, §2
0.0176 U/ml plasma kallikrein (human)
as §3

[8] = molecular target: native FIXa (human) (Homo sapiens, UniProt P00740); conditions: pH 7.4; for V/V0: MeSO2-D-HHT-Gly-Arg-pNA 1.02 mmol/l, 0.14 μmol/l native FIXa
Chain of native FIXa (human) (P00740 227-461 limits assumed): as the sequence (P00740 227-461) above
Chain of native FIXa (human) (P00740 47-191 partner limits assumed): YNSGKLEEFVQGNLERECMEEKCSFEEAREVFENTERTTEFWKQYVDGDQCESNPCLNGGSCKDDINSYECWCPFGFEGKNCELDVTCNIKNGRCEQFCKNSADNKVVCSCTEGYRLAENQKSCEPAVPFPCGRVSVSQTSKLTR
Method: The FIXa test was carried out with recombinantly produced native human FIXa as a sample and the peptide substrate MeSO2 -D-HHT-Gly-Arg-pNA (Pefachrom tPA, Pentapharm Ltd., Basel, Switzerland) or other chromogenic/fluorogenic substrates of the R-D-Xxx-Gly-Arg-pNA type (EP-B 0 034 122) in Tris-HCl buffer and the substances to be tested (alcohol, solvents and inhibitors). The reaction was started by adding FIXa.
The test mixture was incubated at room temperature (25° C.) in a microtitre plate and the change in absorbance (ΔA/min) was measured at 405 nm using an ELISA reader. The activity and the kinetic constants were determined from the linear initial slope according to the Michaelis-Menten equation.
as §2
0.14 μmol/l native FIXa (human)
as §3
FIXa Test Mixture (Concentration in the Test)

For `OCCO` [Ethylene glycol], the V/V0 ([1]; 8% alcohol) was 0.892, the V/V0 ([1]; 16% alcohol) was 0.729 and the V/V0 ([1]; 25% alcohol) was 0.551. It also gave a V/V0 ([1]; 33% alcohol) of 0.355, a V/V0 ([1]; 41% alcohol) of 0.187 and a V/V0 ([1]; 50% alcohol) of 0.103. For the same molecule, the V/V0 ([2]; 8% additive) was 2.55, the V/V0 ([2]; 16% additive) was 5.59 and the V/V0 ([2]; 25% additive) was 8.40. The V/V0 ([2]; 33% additive) was 8.90 and 9, the V/V0 ([2]; 41% additive) was 5.79 and the V/V0 ([2]; 50% additive) was 1.44. The V/V0 ([3]; 8% alcohol) was 0.924, the V/V0 ([3]; 16% alcohol) was 0.862 and the V/V0 ([3]; 25% alcohol) was 0.763. It also gave a V/V0 ([3]; 33% alcohol) of 0.653, a V/V0 ([3]; 41% alcohol) of 0.508 and a V/V0 ([3]; 50% alcohol) of 0.395. It also gave a V/V0 ([4]; 8% additive, MOC-D-Nle-Gly-Arg-pNA 0.82 mmol/l, 0.48 μmol/l rFIXa) of 3.91, a V/V0 ([4]; 8% additive, MeSO2-D-CHA-Gly-Arg-pNA 1.02 mmol/l, 0.48 μmol/l rFIXa) of 2.84 and a V/V0 ([4]; 8% additive, MeSO2-D-CHG-Gly-Arg-pNA 1.02 mmol/l, […] rFIXa) of 5.47. The V/V0 ([4]; 8% additive, MeSO2-D-HHT-Gly-Arg-pNA 1.02 mmol/l, 0.48 μmol/l rFIXa) was 2.91, the V/V0 ([4]; 16% additive, MOC-D-Nle-Gly-Arg-pNA 0.82 mmol/l, 0.48 μmol/l rFIXa) was 8.85 and the V/V0 ([4]; 16% additive, MeSO2-D-CHA-Gly-Arg-pNA 1.02 mmol/l, 0.48 μmol/l rFIXa) was 6.26. For the same molecule, the V/V0 ([4]; 16% additive, MeSO2-D-CHG-Gly-Arg-pNA 1.02 mmol/l, […] rFIXa) was 13.13, the V/V0 ([4]; 16% additive, MeSO2-D-HHT-Gly-Arg-pNA 1.02 mmol/l, 0.48 μmol/l rFIXa) was 6.05 and the V/V0 ([4]; 25% additive, MOC-D-Nle-Gly-Arg-pNA 0.82 mmol/l, 0.48 μmol/l rFIXa) was 17.07. It also gave a V/V0 ([4]; 25% additive, MeSO2-D-CHA-Gly-Arg-pNA 1.02 mmol/l, 0.48 μmol/l rFIXa) of 9.34, a V/V0 ([4]; 25% additive, MeSO2-D-CHG-Gly-Arg-pNA 1.02 mmol/l, […] rFIXa) of 19.37 and a V/V0 ([4]; 25% additive, MeSO2-D-HHT-Gly-Arg-pNA 1.02 mmol/l, 0.48 μmol/l rFIXa) of 10.27. The V/V0 ([4]; 33% additive, MOC-D-Nle-Gly-Arg-pNA 0.82 mmol/l, 0.48 μmol/l rFIXa) was 22.42, the V/V0 ([4]; 33% additive, MeSO2-D-CHA-Gly-Arg-pNA 1.02 mmol/l, 0.48 μmol/l rFIXa) was 11.18 and 11 and the V/V0 ([4]; 33% additive, MeSO2-D-CHG-Gly-Arg-pNA 1.02 mmol/l, […] rFIXa) was 23.20. It also gave a V/V0 ([4]; 33% additive, MeSO2-D-HHT-Gly-Arg-pNA 1.02 mmol/l, 0.48 μmol/l rFIXa) of 12.68, a V/V0 ([4]; 41% additive, MOC-D-Nle-Gly-Arg-pNA 0.82 mmol/l, 0.48 μmol/l rFIXa) of 17.80 and a V/V0 ([4]; 41% additive, MeSO2-D-CHA-Gly-Arg-pNA 1.02 mmol/l, 0.48 μmol/l rFIXa) of 7.54. For the same molecule, the V/V0 ([4]; 41% additive, MeSO2-D-CHG-Gly-Arg-pNA 1.02 mmol/l, […] rFIXa) was 17.40, the V/V0 ([4]; 41% additive, MeSO2-D-HHT-Gly-Arg-pNA 1.02 mmol/l, 0.48 μmol/l rFIXa) was 9.68 and the V/V0 ([4]; 50% additive, MOC-D-Nle-Gly-Arg-pNA 0.82 mmol/l, 0.48 μmol/l rFIXa) was 6.96. It also gave a V/V0 ([4]; 50% additive, MeSO2-D-CHA-Gly-Arg-pNA 1.02 mmol/l, 0.48 μmol/l rFIXa) of 2.56, a V/V0 ([4]; 50% additive, MeSO2-D-CHG-Gly-Arg-pNA 1.02 mmol/l, […] rFIXa) of 5.67 and a V/V0 ([4]; 50% additive, MeSO2-D-HHT-Gly-Arg-pNA 1.02 mmol/l, 0.48 μmol/l rFIXa) of 3.41. The “quotient V/V0 relative to that with substrate MeSO2-D-HHT-Gly-Arg-pNA” value ([4]; above 25% ethylene glycol, substrates MOC-D-Nle-Gly-Arg-pNA and MeSO2-D-CHG-Gly-Arg-pNA) was 1.5-2 fold, the “stimulation of the activity of rFIXa” value ([4]; concentration range of 15-40%) was 5-15 fold and the V/V0 ([5]; 8% alcohol) was 0.922. It also gave a V/V0 ([5]; 16% alcohol) of 0.790, a V/V0 ([5]; 25% alcohol) of 0.569 and a V/V0 ([5]; 33% alcohol) of 0.422. The V/V0 ([5]; 41% alcohol) was 0.275, the V/V0 ([5]; 50% alcohol) was 0.165 and the V/V0 ([6]; 8% alcohol) was 0.973. The V/V0 ([6]; 16% alcohol) was 0.902, the V/V0 ([6]; 25% alcohol) was 0.741 and the V/V0 ([6]; 33% alcohol) was 0.558. It also gave a V/V0 ([6]; 41% alcohol) of 0.347, a V/V0 ([6]; 50% alcohol) of 0.191 and a V/V0 ([7]; 8% alcohol) of 1.05. It also gave a V/V0 ([7]; 16% alcohol) of 0.763, a V/V0 ([7]; 25% alcohol) of 0.676 and a V/V0 ([7]; 33% alcohol) of 0.536. The V/V0 ([7]; 41% alcohol) was 0.478, the V/V0 ([7]; 50% alcohol) was 0.290 and the “activation among plasma kallikrein, FXIIa, FXIa, FIXa, FXa and thrombin (in words)” value ([8]; 0-50% alcohol, MeSO2-D-HHT-Gly-Arg-pNA) was “only FIXa is activated”. It also gave a V/V0 ([8]; 8% additive) of 3.13, a V/V0 ([8]; 16% additive) of 6.19 and a V/V0 ([8]; 25% additive) of 9.36. It also gave a V/V0 ([8]; 33% additive) of 12.21, a V/V0 ([8]; 41% additive) of 8.29 and a V/V0 ([8]; 50% additive) of 3.92.
